Laboratory results: US11052154B2, “Ras protein degradation inducing molecule and pharmaceutical composition” (Tokyo University of Science Foundation, priority 2016, dated 2021)

Tests used:
HeLa cells = assay: Apoptosis induction in HeLa cells, FACS analysis (Annexin V/PI); assay type: cell-based, human; conditions: HeLa cells expressing wild-type K-Ras, 24 hours after addition; FIGS. 6A, 7A
Description: (§1) In Example 7, apoptosis induction in a case where TUS-007, Ras-SOS, or Ras-SOS-NH2 was added to HeLa cells or SW1990 cells (human pancreatic cancer cells) had been added was evaluated by the FACS analysis. It is noted that in HeLa cells, the wild-type K-Ras protein (K-Ras-WT) is expressed, and in SW1990 cells, the G12D mutant K-Ras protein (K-Ras-G12D) is expressed.
(§2) HeLa cells or SW1990 cells were seeded in a 24-well plate at a cell density of 8×10^4 cells/well, and then cultured under conditions of 37° C. and 5 vol % CO2 for 16 hours.
(§3) After 16 hours from cell seeding, TUS-007, Ras-SOS, or Ras-SOS-NH2 were added to HeLa cells or SW1990 cells as follows. As a medium, a serum-free medium (37° C.) in which 1 mass % L-glutamine solution (Sigma-Aldrich) was added to D-MEM (high D-glucose, phenol red, sodium pyruvate (Wako Pure Chemical Industries, Ltd.)) was used. It is noted that the L-glutamine solution was added immediately before use. A DMSO solution containing TUS-007, Ras-SOS, or Ras-SOS-NH2 was mixed with the medium so that the concentration of DMSO was 1 vol %, and added to each well at 500 μL/well, and cultured under conditions of 37° C. and 5 vol % CO2. As a control, DMSO was used.
(§4) The medium was removed 24 hours after addition of TUS-007, Ras-SOS, or Ras-SOS-NH2, and then PBS was added to wash the cells. After removing PBS, trypsin (0.25 w/v % trypsin-1 mmol/L EDTA⋅4 Na solution with phenol red) (Wako Pure Chemical Industries, Ltd.) at 37° C. was added to each well at 200 μL/well, and cultured under conditions of 37° C. and 5 vol % CO2 for 1 minute. […]
(§5) A BD FACSCanto™ II (BD Biosciences) was used for flow cytometry. […] The proportion of Annexin V-positive and PI-negative cells was calculated using an analysis software FlowJo™ (TOMY Digital Biology Co., Ltd.), and the proportion was defined as a proportion of apoptosis cells.
(§6) In Example 8, apoptosis induction in a case where TUS-007, Ras-SOS-NH2, or erlotinib as an anticancer agent (EGFR inhibitor) was added to HeLa cells or SW1990 cells was evaluated by FACS analysis as in Example 7.

SW1990 cells = assay: Apoptosis induction in SW1990 cells, FACS analysis (Annexin V/PI); assay type: cell-based, human; conditions: SW1990 cells expressing G12D mutant K-Ras, 24 hours after addition; FIGS. 6B, 7B
Description: as §1, §2, §3, §4, §5, §6

In the case of `CCC(C)[C@H](NC(=O)CCCCCCNC(=O)[C@H](CC(C)C)NC(=O)CNC(=O)c1cc(Cl)ccc1Cl)C(=O)Nc1ccc2[nH]c(Cc3c[nH]c4ccccc34)nc2c1` (stereo in doubt) [TUS-007], the “apoptosis induction (proportion of Annexin V-positive and PI-negative cells)” value (HeLa cells) is reported as “apoptosis was induced in a concentration-dependent manner” and the “apoptosis induction (proportion of Annexin V-positive and PI-negative cells)” value (SW1990 cells) is reported as “the effect of the apoptosis by TUS-007 was high at the same level as in the case of the HeLa cells”.
